From US20220401514A1, “ANTIMICROBIAL, BACTERIOPHAGE-DERIVED POLYPEPTIDES AND THEIR USE AGAINST GRAM-NEGATIVE AND ACID-FAST BACTERIA” (CONTRAFECT CORPORATION, priority 2019, published 2022)
Converted amounts (≈) assume the structure as drawn.

Tested on: Mycobacterium tuberculosis strains
Test: microbe, parasite or virus in culture
Method: MIC values for various Chp peptides were determined using the CLSI method for broth microdilution in 96-well microtiter format.
Next, MIC values for various Chp peptides were determined using the CLSI method above for broth microdilution in 96-well microtiter format for two different Mycobacterium tuberculosis strains. The MIC was determined as explained above for the NTM strains.

SMILES: NC[C@H]1O[C@H](O[C@H]2[C@H](O)[C@@H](O[C@H]3O[C@H](CO)[C@@H](O)[C@H](N)[C@H]3O)[C@H](N)C[C@@H]2N)[C@H](N)C[C@@H]1O [tobramycin, reference compound]
- MIC (ATCC25177): 4 µg/mL (≈ 8.56 µM)
- MIC (ATCC35817): 4 µg/mL (≈ 8.56 µM)
